Test results from US7268241B2, “Method for the production of 4-(17$g(a)-methyl substituted 3-oxoestra-4 9-dien-11$g(b)-yl)benzaldehyd-(1e or 1z)-oximes” (Schering AG, priority 2000, dated 2007).

Columns and labels:
Glucocorticoid Receptor = target: T1, Glucocorticoid Receptor (Rattus norvegicus, UniProt P06536); test: Receptor binding affinity, competitive binding of 3H-Dexamethasone tracer in thymus cytosol; settings: relative binding affinity; thymus cytosol of the adrenalectomized rat; tracer 3H-Dexamethasone; reference Dexamethasone = 100%
T1 construct: receptors in the cytosol from animal target organs; from tissue; host or cells: thymus cytosol of adrenalectomized rat
T1 sequence (P06536 1-795): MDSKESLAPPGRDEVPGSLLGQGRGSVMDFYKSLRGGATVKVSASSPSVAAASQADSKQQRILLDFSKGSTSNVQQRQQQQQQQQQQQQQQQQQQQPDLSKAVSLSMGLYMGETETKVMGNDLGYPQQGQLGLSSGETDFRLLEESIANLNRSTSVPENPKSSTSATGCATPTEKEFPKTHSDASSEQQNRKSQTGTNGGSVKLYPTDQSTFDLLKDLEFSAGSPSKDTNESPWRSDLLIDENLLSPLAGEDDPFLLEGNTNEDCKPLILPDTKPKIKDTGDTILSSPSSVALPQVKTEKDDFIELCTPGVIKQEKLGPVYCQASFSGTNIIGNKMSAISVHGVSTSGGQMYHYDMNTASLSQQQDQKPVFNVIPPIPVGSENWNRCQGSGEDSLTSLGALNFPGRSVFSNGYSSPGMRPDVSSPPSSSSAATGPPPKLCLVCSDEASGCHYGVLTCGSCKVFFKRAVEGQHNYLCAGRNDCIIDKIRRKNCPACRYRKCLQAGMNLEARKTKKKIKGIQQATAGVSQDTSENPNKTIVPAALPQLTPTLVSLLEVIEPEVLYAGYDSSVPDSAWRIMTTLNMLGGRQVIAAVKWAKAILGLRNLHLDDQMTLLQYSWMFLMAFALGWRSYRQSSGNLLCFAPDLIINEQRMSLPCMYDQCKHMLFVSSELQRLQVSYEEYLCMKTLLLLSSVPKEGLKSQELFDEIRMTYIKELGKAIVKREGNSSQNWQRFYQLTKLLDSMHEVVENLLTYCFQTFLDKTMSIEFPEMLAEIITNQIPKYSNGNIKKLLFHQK
Method: (§1) The receptor binding affinity was determined by competitive binding of a specifically binding ^3H-labeled tracer and the compound to be tested to receptors in the cytosol from animal target organs. In this case, receptor saturation and reaction equilibrium in the case of the following reaction conditions were sought:
(§2) Uterus cytosol of the estradiol-primed rabbit, stored at −30° C., in TED buffer (20 mmol of Tris/HCl, pH 7.4; 1 mmol of ethylenediamine tetraacetate, 2 mmol of dithiothreitol) with 250 mmol of saccharose. • Tracer: ^3H—ORG 2058 • Reference substance: Progesterone Glucocorticoid Receptor: • Thymus cytosol of the adrenalectomized rat, thymi stored at −30° C.; TED buffer • Tracer: ^3H-Dexamethasone, 20 nmol • Reference substance: Dexamethasone

Progesterone Receptor = target: T2, Progesterone Receptor (Oryctolagus cuniculus, UniProt P06186); test: Receptor binding affinity, competitive binding of 3H-ORG 2058 tracer in uterus cytosol; settings: relative binding affinity; uterus cytosol of the estradiol-primed rabbit; tracer 3H-ORG 2058; reference Progesterone = 100%
T2 construct: receptors in the cytosol from animal target organs; from tissue; host or cells: uterus cytosol of estradiol-primed rabbit
T2 sequence (P06186 1-930): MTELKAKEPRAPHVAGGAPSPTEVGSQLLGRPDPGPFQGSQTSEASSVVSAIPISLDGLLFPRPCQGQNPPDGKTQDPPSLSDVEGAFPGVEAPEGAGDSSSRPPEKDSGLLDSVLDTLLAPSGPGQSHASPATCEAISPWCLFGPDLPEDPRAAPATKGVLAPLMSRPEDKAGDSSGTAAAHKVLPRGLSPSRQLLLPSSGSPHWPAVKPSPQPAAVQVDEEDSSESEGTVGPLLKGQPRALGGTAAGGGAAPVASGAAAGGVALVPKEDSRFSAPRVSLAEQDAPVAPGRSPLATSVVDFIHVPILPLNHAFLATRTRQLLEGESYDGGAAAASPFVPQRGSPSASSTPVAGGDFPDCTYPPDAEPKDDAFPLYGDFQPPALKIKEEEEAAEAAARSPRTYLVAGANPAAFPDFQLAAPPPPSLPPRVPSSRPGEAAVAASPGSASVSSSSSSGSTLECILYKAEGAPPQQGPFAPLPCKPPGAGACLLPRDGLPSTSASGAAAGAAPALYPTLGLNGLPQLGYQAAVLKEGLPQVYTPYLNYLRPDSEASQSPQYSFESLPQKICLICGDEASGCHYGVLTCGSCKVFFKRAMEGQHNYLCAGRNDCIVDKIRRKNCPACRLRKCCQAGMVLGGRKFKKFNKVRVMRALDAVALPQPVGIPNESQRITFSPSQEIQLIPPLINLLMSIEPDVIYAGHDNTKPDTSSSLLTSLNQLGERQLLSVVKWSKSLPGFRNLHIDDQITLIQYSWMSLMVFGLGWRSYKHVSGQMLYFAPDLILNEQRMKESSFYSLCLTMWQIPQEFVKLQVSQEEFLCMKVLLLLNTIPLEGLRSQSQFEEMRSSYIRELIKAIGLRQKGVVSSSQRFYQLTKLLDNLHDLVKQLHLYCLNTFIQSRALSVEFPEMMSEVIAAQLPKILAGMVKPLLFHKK
Method: as §1, §2

pregnancy in the rat = test: Early-abortive action in the rat; type: in vivo; settings: subcutaneous, 5th to 7th day of pregnancy; dose giving complete inhibition of pregnancy
Method: The early-abortive action was determined in the rat after subcutaneous administration from the 5th to the 7th day of pregnancy [administration 0.2 ml/animal/day in benzyl benzoate/castor oil (1+4 v/v)]. The dose indicates what amount must be given to at least 4 animals apiece in comparison to untreated animals, so that a complete inhibition of pregnancy is achieved.

Structure (SMILES)	Glucocorticoid Receptor [Dexamethasone = 100%] (Glucocorticoid Receptor) [%]	Progesterone Receptor [Progesterone = 100%] (Progesterone Receptor) [%]	100% Early-abortive Action in the Rat (pregnancy in the rat) [mg/animal/day]
COCC1(O)CCC2C3CCC4=CC(=O)CCC4=C3C(c3ccc(C=NO)cc3)CC21C (stereo not drawn) [4-[17β-Hydroxy-(17α-(methoxymethyl)-3-oxoestra-4,9-dien-11β-] [4-[17β-hydroxy-17α-(methoxymethyl)-3-oxoestra-4,9-dien-11β-yl]benzaldehyde-1Z-oxime]	67	–	–
COCC1(OC)CCC2C3CCC4=CC(=O)CCC4=C3C(c3ccc(C=NO)cc3)CC21C (stereo not drawn) [4-[17β-methoxy-17α-(methoxymethyl)-3-oxoestra-4,9-dien-11β-yl]benzaldehyde-1Z-oxime]	52	126	1.0
COCC1(O)CCC2C3CCC4=CC(=O)CCC4=C3C(c3ccc(C=NO)cc3)CC21C (stereo not drawn) [4-[17β-Hydroxy-(17α-(methoxymethyl)-3-oxoestra-4,9-dien-11β-] [4-[17β-Hydroxy-17α-(methoxymethyl)-3-oxoestra-4,9-dien-11β-yl]benzaldehyde-1E-oxime]	76	–	1.0
CC#C[C@]1(O)CC[C@H]2[C@@H]3CCC4=CC(=O)CCC4=C3[C@@H](c3ccc(N(C)C)cc3)C[C@@]21C [Ru 38 486, reference compound]	–	685	3.0
COC[C@]1(OC)CC[C@H]2[C@@H]3CCC4=CC(=O)CCC4=C3[C@@H](c3ccc(/C=N/O)cc3)C[C@@]21C [4-[17β-Methoxy-17α-(methoxymethyl)-3-oxoestra-4,9-dien-11β-yl] benzaldehyde-1E-oxime]	78	302	1.0
CC12CC(c3ccc(C=NO)cc3)C3=C4CCC(=O)C=C4CCC3C1CCC2(O)COCC(F)(F)F (stereo not drawn) [4-[17β-Hydroxy-(17α-(1,1,1-trifluoroethoxymethyl)-3-oxoestra-4,9-dien-11β-yl]benzaldehyde-1E-oxime]	94	177	3.0
